From patent publication US12358918B2, “Aryl hydrocarbon receptor (AHR) activator compounds as cancer therapeutics” (THE BROAD INSTITUTE, INC., priority 2018, dated 2025)
Read-outs that look alike come from different tables or passages of the source. Values belong to the compound of their own block, whether it stands above or below them.

Key:
[1] = tested on: MDA-MB-231 breast cancer cell lines; test: cytotoxicity, control cells vs cells overexpressing CYP1A1; assay type: cell-based
From the text: The dependence of each compound's cytotoxic effects upon CYP1A1 was also examined, via screening of MDA-MB-231 breast cancer cell lines for cytotoxic response. The CYP1A1-dependence of the cytotoxic response of to each tested compound was specifically determined by comparing the cytotoxicity of each compound administered to control cells with that of the compound administered to corresponding cells that overexpressed CYP1A1. […]

[2] = tested on: Twelve different breast cancer cell lines; test: adenosine receptor antagonists and agonists dosed on twelve breast cancer cell lines; assay type: cell-based; conditions: 32 adenosine receptor antagonists/agonists compared; FIG. 6B
578 cancer cell lines = test: PRISM multiplexed cellular viability screening; assay type: cell-based; conditions: relation to FOXA1 / FOXA1 target expression across cell lines
Description: The instant discovery was made using large-scale multiplex profiling of existing drugs against 578 cancer cell lines, employing a PRISM multiplexed cellular viability assay.
Parental cell lines were obtained from the Cancer Cell Line Encyclopedia (CCLE) project (1). PRISM cell line barcoding, pooling, and screening was performed as previously described with several improvements to the original method (2). First, the lentiviral vector was modified to encode the unique barcode identifier at the end of the puromycin resistance gene. This enables barcodes to be detected using a variant of the mRNA capture and Luminex detection method developed for the L1000 gene expression assay (3). Second, a set of ten inert barcodes were spiked-in to each well of each plate after cell lysis to control for variation in PCR amplification as detailed below.
Luminex technology produced .Ixb files containing data for each Luminex bead observed during detection. These .Ixb files were processed to compute Median Fluorescence Intensity (MFI) values, calculated as the median of the values obtained for all beads corresponding to a single PRISM barcode.
MFI values were log-transformed (log MFI) and used to perform basic quality control. To detect probable screening artifacts, log MFI values were centered to the median log MFI for each cell line on each plate in order to put the measurements from each cell line on the same scale. For each well on each plate, the median of these centered values was then standardized according to the global median and global MAD across all plate wells in the same position. Data from wells with a standardized score of greater than 5 or less than −5 were excluded from all further processing steps.
For each cell line on each plate, the distribution of MFI values observed for the DMSO-treated negative controls was compared to that of the positive controls using a robust form of the Strictly Standardized Mean Difference (SSMD*)′. Specifically, SSMD* was calculated as: […]
Data corresponding to SSMD values less than 2 were removed before calculating cell viability.
The data in the instant disclosure were produced according to two different screening protocols. In the PR500 protocol, ten inert barcodes were spiked-in to each well of each plate after cell lysis. For data produced using the PR500 protocol, normalized MFI (nMFI) values were computed by taking the ratio of each MFI value against the median of the inert barcodes within each well. […]
Cell viability was calculated as the ratio of nMFI to the median of the nMFI from the DMSO-treated negative controls for each cell line on each plate. […] The final viability values were calculated as the median of the batch-corrected cell viabilities from biological replicates for each cell line, compound and dose. […]

[3] = tested on: MDA-MB-468 and ZR51 breast cancer and JHH7 liver cancer cell lines
[4] = target: T1, recombinant human Adenosine A2B (FAST-003C) receptor (Homo sapiens, UniProt P29275); test: cAMP HTRF assay, Adenosine A2B receptor, antagonist mode; parameters: inhibition: dose or concentration left out as unconfirmed; conditions: for inhibition: HEK293, read-out: % Inhibition Average at maximal concentration; for Hill Coefficient: antagonist mode dose-response fit
T1 sequence (P29275 1-332): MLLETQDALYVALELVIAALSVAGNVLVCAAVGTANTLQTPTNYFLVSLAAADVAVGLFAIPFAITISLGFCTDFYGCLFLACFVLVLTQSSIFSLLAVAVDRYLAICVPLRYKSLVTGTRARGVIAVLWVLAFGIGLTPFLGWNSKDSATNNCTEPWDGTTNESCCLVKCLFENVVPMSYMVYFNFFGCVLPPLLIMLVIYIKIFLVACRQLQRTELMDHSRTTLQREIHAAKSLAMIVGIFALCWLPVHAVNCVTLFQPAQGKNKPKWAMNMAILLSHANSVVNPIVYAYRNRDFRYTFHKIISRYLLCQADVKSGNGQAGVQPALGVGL

[5] = target: T2, recombinant human Adenosine A3 (FAST-004C) receptor (Homo sapiens, UniProt P0DMS8); test: cAMP HTRF assay, Adenosine A3 receptor, antagonist mode; assay type: cell-based
T2 sequence (P0DMS8 1-318): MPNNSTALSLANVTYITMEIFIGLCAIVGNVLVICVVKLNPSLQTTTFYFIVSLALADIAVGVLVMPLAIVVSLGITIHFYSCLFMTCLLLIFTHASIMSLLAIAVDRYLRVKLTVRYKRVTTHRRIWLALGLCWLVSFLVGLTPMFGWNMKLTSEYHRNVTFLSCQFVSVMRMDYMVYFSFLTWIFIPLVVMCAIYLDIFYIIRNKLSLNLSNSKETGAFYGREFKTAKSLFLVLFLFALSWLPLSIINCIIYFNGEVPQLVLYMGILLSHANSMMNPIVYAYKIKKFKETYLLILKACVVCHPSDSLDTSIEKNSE

[6] = target: T3, recombinant human Adenosine A1 (FAST-001C) receptor (Homo sapiens, UniProt P30542); test: cAMP HTRF assay, Adenosine A1 receptor, antagonist mode; parameters: inhibition: dose or concentration left out as unconfirmed; conditions: for inhibition: CHO-K1, read-out: % Inhibition Average at maximal concentration; for Hill Coefficient: antagonist mode dose-response fit
T3 sequence (P30542 1-326): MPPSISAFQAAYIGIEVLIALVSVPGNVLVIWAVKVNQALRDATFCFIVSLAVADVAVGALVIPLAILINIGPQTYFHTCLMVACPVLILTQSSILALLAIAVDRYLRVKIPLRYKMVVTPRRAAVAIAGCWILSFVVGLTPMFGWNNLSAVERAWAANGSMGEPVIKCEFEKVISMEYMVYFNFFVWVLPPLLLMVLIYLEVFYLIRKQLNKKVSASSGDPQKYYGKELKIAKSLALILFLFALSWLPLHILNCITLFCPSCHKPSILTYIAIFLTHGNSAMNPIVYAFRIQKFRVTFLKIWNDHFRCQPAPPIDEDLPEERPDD

[7] = target: recombinant human Adenosine A2A (FAST-002C) receptor (Homo sapiens, UniProt P29274); test: cAMP HTRF assay, Adenosine A2A receptor, antagonist mode; assay type: cell-based
[8] = tested on: MDA-MB-468 breast cancer cells; test: Western immunoblot of treated cells over 24 hours; assay type: cell-based; conditions: FIG. 18
Description: Adherent cells were washed once with cold 1×PBS (Corning #01018002) and lysed with RIPA buffer (Sigma #R0278) supplemented by protease and phosphatase inhibitors (Sigma). Protein content was quantified using the DC Protein Assay (BioRad #5000111). Samples were reduced with (loading buffer) and boiled at 95° C. before being resolved by SDS gel electrophoresis on 4-20% Tris/glycine gels (Invitrogen). Proteins were transferred using the IBlot2 (Thermo #IB21001) onto the iBlot™ 2 nitrocellulose Transfer Stacks (Thermo #IB23001). The membranes were then blocked in Odyssey Blocking Buffer (Li-COR #927-40000) for one hour, and then probed overnight with primary antibodies diluted in blocking buffer. The following day, membranes were washed 3×5 mins with 1×TBST and then probed with LiCOR Infrared secondary antibodies for 1 hour at room temperature. Membranes were washed an additional 3×5 mins in 1×TBST and then imaged using the LiCOR Imager. […]

[9] = CHO-K1; read-out: % Inhibition Average at maximal concentration
[10] = antagonist mode dose-response fit
[11] = HEK293, read-out: % Inhibition Average at maximal concentration
[12] = antagonist mode; HEK293; reference agonist NECA
[13] = HEK293; read-out: % Inhibition Average at maximal concentration

recombinant human Adenosine A2A (FAST-002C) receptor, sequence (P29274 whole entry): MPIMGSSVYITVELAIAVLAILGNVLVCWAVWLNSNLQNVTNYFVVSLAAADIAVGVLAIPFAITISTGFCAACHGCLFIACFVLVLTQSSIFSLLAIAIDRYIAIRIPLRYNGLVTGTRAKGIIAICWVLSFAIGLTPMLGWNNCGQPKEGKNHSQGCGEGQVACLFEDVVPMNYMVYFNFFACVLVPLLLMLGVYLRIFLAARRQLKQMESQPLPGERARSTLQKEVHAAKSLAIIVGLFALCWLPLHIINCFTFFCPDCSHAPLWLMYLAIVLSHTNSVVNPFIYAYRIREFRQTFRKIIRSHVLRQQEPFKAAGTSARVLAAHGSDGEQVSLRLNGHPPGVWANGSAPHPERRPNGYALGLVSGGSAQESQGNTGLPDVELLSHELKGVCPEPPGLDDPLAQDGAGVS

SMILES: O=C(Cc1ccccc1)Nc1nc2ccc(Cl)cc2c2nc(-c3ccco3)nn12 [MRS-1220, reference compound]
CYP1A1-dependence of the cytotoxic response [1]: CYP1A1-dependent cytotoxic
cytotoxicity to breast cancer cell lines [2]: cytotoxic
cell killing profile in PRISM (578 cancer cell lines): cell killing profile specific for such FOXA1-dependent cancer cell lines
AHR-dependence of the cytotoxic response [3]: dependence upon AHR

SMILES: Clc1cccc2ncn3nc(-c4ccco4)nc3c12 [10-chloro-2-(2-furyl)[1,2,4]triazolo[1,5-c]quinazoline]
CYP1A1-dependence of the cytotoxic response [1]: CYP1A1-dependent cytotoxic
AHR-dependence of the cytotoxic response [3]: dependence upon AHR

SMILES: Cc1nc2cccc(C(F)(F)F)c2c2nc(-c3ccco3)nn12 [B3]
CYP1A1-dependence of the cytotoxic response [1]: CYP1A1-dependent cytotoxic
AHR-dependence of the cytotoxic response [3]: dependence upon AHR

SMILES: COc1cccc2nc(N)n3nc(-c4ccco4)nc3c12 [A16]
CYP1A1-dependence of the cytotoxic response [1]: CYP1A1-dependent cytotoxic
AHR-dependence of the cytotoxic response [3]: dependence upon AHR

SMILES: COc1ccc(CCCn2ncc3c2nc(N)n2nc(-c4ccco4)nc32)cc1 [SCH 442416, reference compound]
CYP1A1-dependence of the cytotoxic response [1]: CYP1A1-dependent cytotoxic
AHR-dependence of the cytotoxic response [3]: dependence upon AHR

SMILES: Cc1ccc(-c2nc3c4cc(Cl)ccc4nc(N)n3n2)o1 [BRO-013]
CYP1A1-dependence of the cytotoxic response [1]: CYP1A1-dependent cytotoxic
IC50 [4]: 116 nM
inhibition [4]: 110%
Hill Coefficient [4]: 1.76
inhibition at 10 µM [5, 9]: 74.2%
Hill Coefficient [5, 10]: 1.04
IC50 ([5]; antagonist mode; CHO-K1; reference agonist IB-MECA): 730 nM
IC50 [6]: 7.94 nM
inhibition [6]: 107%
Hill Coefficient [6]: 1.18
inhibition at 10 µM [7, 11]: 112%
Hill Coefficient [7, 10]: 1.39
IC50 [7, 12]: 27.2 nM
AHR-dependence of the cytotoxic response [3]: dependence upon AHR

IC50 [4]: 2140 nM
inhibition [4]: 109%
Hill Coefficient [4]: 1.80
inhibition at 10 µM [5, 9]: 31%
IC50 [6]: 493 nM
inhibition [6]: 96.1%
Hill Coefficient [6]: 1.17
inhibition at 10 µM [7, 13]: 99.2%
Hill Coefficient [7, 10]: 1.72
IC50 [7, 12]: 1330 nM
SMILES: C=C1Nc2ccccc2-c2nc(-c3ccco3)nn21
CYP1A1-dependence of the cytotoxic response [1]: CYP1A1-dependent cytotoxic
AHR-dependence of the cytotoxic response [3]: dependence upon AHR

SMILES: Cc1nc2ccccc2c2nc(-c3ccoc3)nn12 [Z1222312995]
CYP1A1-dependence of the cytotoxic response [1]: CYP1A1-dependent cytotoxic
AHR-dependence of the cytotoxic response [3]: dependence upon AHR

SMILES: Cn1cccc1-c1nc2c3cc(Cl)ccc3nc(N)n2n1 [BRO-018, 9-chloro-2-(1-methyl-1H-pyrrol-2-yl)-[1,2,4]triazolo[1,5-c]quinazolin-5-amine]
CYP1A1-dependence of the cytotoxic response [1]: CYP1A1-dependent cytotoxic
AHR-dependence of the cytotoxic response [3]: dependence upon AHR

IC50 [4]: 2500 nM
inhibition [4]: 97.8%
Hill Coefficient [4]: 1.39
inhibition at 10 µM [5, 9]: 29.5%
IC50 [6]: 170 nM
inhibition [6]: 101%
Hill Coefficient [6]: 1.06
inhibition at 10 µM [7, 13]: 60.7%
SMILES: Clc1ccc2ncn3nc(-c4ccco4)nc3c2c1 [BRO-022, 9-chloro-2-(furan-2-yl)-[1,2,4]triazolo[1,5-c]quinazoline]

SMILES: CC(C)c1ccc2nc(N)n3nc(-c4ccco4)nc3c2c1 [BRO-025, 2-(furan-2-yl)-9-isopropyl-[1,2,4]triazolo[1,5-c]quinazolin-5-amine]
CYP1A1-dependence of the cytotoxic response [1]: CYP1A1-dependent cytotoxic
AHR-dependence of the cytotoxic response [3]: dependence upon AHR

SMILES: CN(C)c1nc2ccc(Cl)cc2c2nc(-c3ccco3)nn12 [BRO-020, 9-chloro-2-(furan-2-yl)-N,N-dimethyl-[1,2,4]triazolo[1,5-c]quinazolin-5-amine]
inhibition [4]: 9.09%
inhibition at 10 µM ([5]; CHO-K1, read-out: % Inhibition Average at maximal concentration): 8.55%
IC50 [6]: 72.4 nM
inhibition [6]: 81.1%
Hill Coefficient [6]: 0.83
inhibition at 10 µM [7, 11]: 18.4%

SMILES: Cc1nc2cnccc2c2nc(-c3ccco3)nn12 [B7]
CYP1A1-dependence of the cytotoxic response [1]: CYP1A1-dependent cytotoxic
AHR-dependence of the cytotoxic response [3]: dependence upon AHR

SMILES: COc1cccc2c1C(=O)c1c(O)c3c(c(O)c1C2=O)C[C@@](O)(C(=O)CO)C[C@@H]3O[C@H]1C[C@H](N)[C@H](O)[C@H](C)O1 [doxorubicin]
CYP1A1 expression ([8]; 24 hour time course): no detectable induction of CYP1A1 expression
FOXA1 levels ([8]; 24 hour time course): decline in FOXA1 levels
DNA double stranded breaks (pH2A.X) and PARP cleavage ([8]; within 24 hours): induced DNA double stranded breaks

SMILES: Cc1nc2ccc(Cl)cc2c2nc(-c3ccco3)nn12 [B2]
CYP1A1-dependence of the cytotoxic response [1]: CYP1A1-dependent cytotoxic
AHR-dependence of the cytotoxic response [3]: dependence upon AHR
